Results as given in US8188098B2, “GPR119 receptor agonists” (Hoffmann-La Roche Inc., priority 2008, dated 2012).

molecular target: T1, GPR119 receptor (Mesocricetus auratus, UniProt A0A1U8CD06); experiment: cAMP assay in HIT-T15 hamster pancreatic islet cells (functional agonist activity); type: cell-based; details: HIT-T15 cells endogenously expressing GPR119; 30 min at 25° C.; intracellular cAMP
T1 construct: which endogenously express the GPR119 receptor; host or cells: HIT-T15 hamster pancreatic islet cells
T1 sequence (A0A1U8CD06 1-334): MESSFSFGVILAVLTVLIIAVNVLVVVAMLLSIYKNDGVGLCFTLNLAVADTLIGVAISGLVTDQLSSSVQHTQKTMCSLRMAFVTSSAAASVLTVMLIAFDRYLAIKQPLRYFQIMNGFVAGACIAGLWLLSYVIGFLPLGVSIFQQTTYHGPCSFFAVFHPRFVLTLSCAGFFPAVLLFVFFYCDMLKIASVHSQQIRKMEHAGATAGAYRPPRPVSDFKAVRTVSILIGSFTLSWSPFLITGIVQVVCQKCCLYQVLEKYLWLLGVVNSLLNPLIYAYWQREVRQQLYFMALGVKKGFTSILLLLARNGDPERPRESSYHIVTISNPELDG
In short: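 cAMP immunoassay with luminescent read-out, EC50 fitted, after a 30 min, 25° C agonist incubation in HIT-T15 hamster islet cells expressing GPR119 natively. Medium contained 0.5 mM IBMX and 0.5 mg/ml BSA; 9000 cells/well.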

Compound | EC50 [µM]
Cc1cc(Oc2ncnc3c2cnn3C2CCN(C(=O)OC(C)(C)C)CC2)ccc1NS(C)(=O)=O [Example 68, 4-[4-(4-Methanesulfonylamino-3-methyl-phenoxy)-pyrazolo[3,4-d]pyrimidin-1-yl]-piperidine-1-carboxylic acid tert-butyl ester] | 0.73
N#Cc1ccc(F)c(F)c1Oc1ncnc2c1cnn2C1CCN(C(=O)OC2CCCC2)CC1 [Example 119, 4-[4-(6-Cyano-2,3-difluoro-phenoxy)-pyrazolo[3,4-d]pyrimidin-1-yl]-piperidine-1-carboxylic acid cyclopentyl ester] | 0.063
CC(=O)Nc1cccc(Oc2ncnc3c2cnn3C2CCN(C(=O)OC(C)(C)C)CC2)c1 [Example 69, 4-[4-(3-Acetylamino-phenoxy)-pyrazolo[3,4-d]pyrimidin-1-yl]-piperidine-1-carboxylic acid tert-butyl ester] | 0.6
CC(=O)N1CCN(c2ccc(Oc3ncnc4c3cnn4C3CCN(C(=O)OC(C)(C)C)CC3)cc2)CC1 [Example 67, 4-{4-[4-(4-Acetyl-piperazin-1-yl)-phenoxy]-pyrazolo[3,4-d]pyrimidin-1-yl}-piperidine-1-carboxylic acid tert-butyl ester] | 0.85
CC(C)(C)OC(=O)N1CCC(n2ncc3c(Oc4ccc5c(c4)OCO5)ncnc32)CC1 [Example 41, 4-[4-(Benzo[1,3]dioxol-5-yloxy)-pyrazolo[3,4-d]pyrimidin-1-yl]-piperidine-1-carboxylic acid tert-butyl ester] | 0.29
CC(=O)c1ccc(Oc2ncnc3c2cnn3C2CCN(C(=O)OC(C)(C)C)CC2)cc1C [Example 65, 4-[4-(4-Acetyl-3-methyl-phenoxy)-pyrazolo[3,4-d]pyrimidin-1-yl]-piperidine-1-carboxylic acid tert-butyl ester] | 0.31
CS(=O)(=O)c1ccc(Oc2ncnc3c2cnn3C2CCN(C(=O)CCc3ccccc3)CC2)cc1 [Example 146, 1-{4-[4-(4-Methanesulfonyl-phenoxy)-pyrazolo[3,4-d]pyrimidin-1-yl]-piperidin-1-yl}-3-phenyl-propan-1-one] | 1
CS(=O)(=O)c1ccc(Oc2ncnc3c2cnn3C2CCN(C(=O)c3cccs3)CC2)cc1 [Example 155, {4-[4-(4-Methanesulfonyl-phenoxy)-pyrazolo[3,4-d]pyrimidin-1-yl]-piperidin-1-yl}-thiophen-2-yl-methanone] | 1.6
CC(C)(C)OC(=O)N1CCC(n2ncc3c(Oc4ccc(Cl)cc4C#N)ncnc32)CC1 [Example 51, 4-[4-(4-Chloro-2-cyano-phenoxy)-pyrazolo[3,4-d]pyrimidin-1-yl]-piperidine-1-carboxylic acid tert-butyl ester] | 0.11
Cc1ncccc1Oc1ncnc2c1cnn2C1CCN(C(=O)OC(C)C)CC1 [Example 27, 4-[4-(2-Methyl-pyridin-3-yloxy)-pyrazolo[3,4-d]pyrimidin-1-yl]-piperidine-1-carboxylic acid isopropyl ester] | 0.85
CC(C)(C)OC(=O)N1CCC(n2ncc3c(Oc4ccc(-n5cncn5)cc4)ncnc32)CC1 [Example 80, 4-[4-(4-[1,2,4]Triazol-1-yl-phenoxy)-pyrazolo[3,4-d]pyrimidin-1-yl]-piperidine-1-carboxylic acid tert-butyl ester] | 0.046
CC(C)(C)OC(=O)N1CCC(n2ncc3c(Oc4cccc5ncccc45)ncnc32)CC1 [Example 71, 4-[4-(Quinolin-5-yloxy)-pyrazolo[3,4-d]pyrimidin-1-yl]-piperidine-1-carboxylic acid tert-butyl ester] | 0.75
CC(C)OC(=O)N1CCC(n2ncc3c(Oc4c(C#N)ccc(F)c4F)ncnc32)CC1 [Example 20, 4-[4-(6-Cyano-2,3-difluoro-phenoxy)-pyrazolo[3,4-d]pyrimidin-1-yl]-piperidine-1-carboxylic acid isopropyl ester] | 0.57

Continued by falling EC50, values first:

EC50 [µM] | Compound
3.6 | CS(=O)(=O)c1ccc(Oc2ncnc3c2cnn3C2CCN(Cc3nccs3)CC2)cc1 [Example 169, 4-(4-Methanesulfonyl-phenoxy)-(1-thiazol-2-ylmethyl-piperidin-4-yl)-1H-pyrazolo[3,4-d]pyrimidine]
2.4 | Cc1nc(-n2cncn2)ccc1Nc1ncnc2c1cnn2C1CCN(C(=O)OC(C)(C)C)CC1 [Example 9, 4-[4-(2-Methyl-6-[1,2,4]triazol-1-yl-pyridin-3-ylamino)-pyrazolo[3,4-d]pyrimidin-1-yl]-piperidine-1-carboxylic acid tert-butyl ester]
1.8 | CC(C)(C)OC(=O)N1CCC(n2ncc3c(Oc4cncc(Cl)c4)ncnc32)CC1 [Example 100, 4-[4-(5-Chloro-pyridin-3-yloxy)-pyrazolo[3,4-d]pyrimidin-1-yl]-piperidine-1-carboxylic acid tert-butyl ester]
1.2 | CC(C)(C)OC(=O)N1CCC(n2ncc3c(Oc4cnc5[nH]ccc5c4)ncnc32)CC1 [Example 72, 4-[4-(1H-Pyrrolo[2,3-b]pyridin-5-yloxy)-pyrazolo[3,4-d]pyrimidin-1-yl]-piperidine-1-carboxylic acid tert-butyl ester]
0.89 | COc1ccc(Oc2ncnc3c2cnn3C2CCN(C(=O)OC(C)(C)C)CC2)c(OC)n1 [Example 95, 4-[4-(2,6-Dimethoxy-pyridin-3-yloxy)-pyrazolo[3,4-d]pyrimidin-1-yl]-piperidine-1-carboxylic acid tert-butyl ester]
0.86 | Cc1nc(-n2cncn2)ccc1Oc1ncnc2c1cnn2C1CCN(C(=O)OC(C)C)CC1 [Example 30, 4-[4-(2-Methyl-6-[1,2,4]triazol-1-yl-pyridin-3-yloxy)-pyrazolo[3,4-d]pyrimidin-1-yl]-piperidine-1-carboxylic acid isopropyl ester]
0.71 | CC(C)OC(=O)N1CCC(n2ncc3c(Oc4ccccc4C#N)ncnc32)CC1 [Example 19, 4-[4-(2-Cyano-phenoxy)-pyrazolo[3,4-d]pyrimidin-1-yl]-piperidine-1-carboxylic acid isopropyl ester]
0.68 | CS(=O)(=O)c1ccc(Oc2ncnc3c2cnn3C2CCN(C(=O)OC(CF)CF)CC2)cc1 [Example 109, 4-[4-(4-Methanesulfonyl-phenoxy)-pyrazolo[3,4-d]pyrimidin-1-yl]-piperidine-1-carboxylic acid 2-fluoro-1-fluoromethyl-ethyl ester]
0.57 | CS(=O)(=O)c1ccc(Oc2ncnc3c2cnn3C2CCN(Cc3ccc(Cl)cc3)CC2)cc1 [Example 160, 1-[1-(4-Chloro-benzyl)-piperidin-4-yl]-4-(4-methanesulfonyl-phenoxy)-1H-pyrazolo[3,4-d]pyrimidine]
0.12 | CS(=O)(=O)c1ccc(Oc2ncnc3c2cnn3C2CCN(Cc3cccc(OC(F)(F)F)c3)CC2)cc1 [Example 162, 4-(4-Methanesulfonyl-phenoxy)-1-[1-(3-trifluoromethoxy-benzyl)-piperidin-4-yl]-1H-pyrazolo[3,4-d]pyrimidine]
0.1 | CC(C)(C)COC(=O)N1CCC(n2ncc3c(Oc4ccc(S(C)(=O)=O)cc4)ncnc32)CC1 [Example 108, 4-[4-(4-Methanesulfonyl-phenoxy)-pyrazolo[3,4-d]pyrimidin-1-yl]-piperidine-1-carboxylic acid 2,2-dimethyl-propyl ester]
0.088 | CC(C)(C)OC(=O)N1CCC(n2ncc3c(Oc4cc(F)c(F)cc4F)ncnc32)CC1 [Example 35, 4-[4-(2,4,5-Trifluoro-phenoxy)-pyrazolo[3,4-d]pyrimidin-1-yl]-piperidine-1-carboxylic acid tert-butyl ester]
0.044 | CC(C)(OC(=O)N1CCC(n2ncc3c(Oc4ccc(S(C)(=O)=O)cc4)ncnc32)CC1)C(Cl)(Cl)Cl [Example 114, 4-[4-(4-Methanesulfonyl-phenoxy)-pyrazolo[3,4-d]pyrimidin-1-yl]-piperidine-1-carboxylic acid 2,2,2-trichloro-1,1-dimethyl-ethyl ester]
0.028 | Cc1nc(Oc2ccc(S(C)(=O)=O)cc2)c2cnn(C3CCN(C(=O)OC(C)(C)C)CC3)c2n1 [Example 175, 4-[4-(4-Methanesulfonyl-phenoxy)-6-methyl-pyrazolo[3,4-d]pyrimidin-1-yl]-piperidine-1-carboxylic acid tert-butyl ester]
